The values below come from patent US20240226107A1, “UBIQUITIN-SPECIFIC PROTEASE 1 (USP1) INHIBITOR” (SIMCERE ZAIMING PHARMACEUTICAL CO., LTD., priority 2021, published 2024).

Usually IC50 stands for the concentration needed to halve the response being measured. A word on the GI50: it is the concentration at which growth is held to half of that of the control. The low end stands for greater sensitivity of the cells, the high end for lower sensitivity of the cells.

Experiment [1] deals with USP1 (Recombinant Human His6-USP1/His6-UAF1 Complex Protein) (Homo sapiens (Human), UniProt O94782). Briefly: In vitro activity assay for USP1 (Ub-CHOP2-Reporter deubiquitination assay). Type of experiment: biochemical. The note with it: 0.5 h incubation at room temperature, read-out: In vitro inhibitory activity of USP1 IC50. The protocol:
The assay kit (Ub-CHOP2-Reporter Deubiquitination Assay Kit) was purchased from Lifesensors, with Cat. No. of PR1101. The assay kit was subpackaged and stored at −80° C.
Each compound to be tested was dissolved with DMSO to 10 mM. The compound and pure DMSO (with a total volume of 50 nL) were loaded to each well of the 384-well plate by using an ECHO instrument to obtain gradient-diluted sample concentrations at different ratios. The enzyme was diluted with a freshly prepared reaction solution (20 mM Tris-HCl (pH 8.0), 2 mM CaCl2, 2 mM β-mercaptoethanol, 0.05% CHAPS, and ddH2O). To each well, 5 μL of diluted enzyme reaction solution was added, then the plate was centrifuged and oscillated to mix the enzyme and the compound, and the mixture was centrifuged again and placed on ice. The kit reporter system and the substrate were diluted with the reaction solution, then 5 μL of diluted liquid was added to each well, and mixed by centrifugation. The mixture was incubated at room temperature for 0.5 h. […] The inhibitory activity (IC50 values) of the compound on enzyme activity was calculated by using a four-parameter Logistic Model. […] A, B, C, and D are four parameters.

Each structure is given as a SMILES string.
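Wherever GI50 is given: MDA-MB-436 proliferation over 7 days with compound, viability read as ATP luminescence (CellTiter-Glo), inhibition relative to DMSO-only wells, day 0 signal as background, GI50 from four-parameter fit.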

USP1 (Recombinant Human His6-USP1/His6-UAF1 Complex Protein), sequence (O94782 whole entry): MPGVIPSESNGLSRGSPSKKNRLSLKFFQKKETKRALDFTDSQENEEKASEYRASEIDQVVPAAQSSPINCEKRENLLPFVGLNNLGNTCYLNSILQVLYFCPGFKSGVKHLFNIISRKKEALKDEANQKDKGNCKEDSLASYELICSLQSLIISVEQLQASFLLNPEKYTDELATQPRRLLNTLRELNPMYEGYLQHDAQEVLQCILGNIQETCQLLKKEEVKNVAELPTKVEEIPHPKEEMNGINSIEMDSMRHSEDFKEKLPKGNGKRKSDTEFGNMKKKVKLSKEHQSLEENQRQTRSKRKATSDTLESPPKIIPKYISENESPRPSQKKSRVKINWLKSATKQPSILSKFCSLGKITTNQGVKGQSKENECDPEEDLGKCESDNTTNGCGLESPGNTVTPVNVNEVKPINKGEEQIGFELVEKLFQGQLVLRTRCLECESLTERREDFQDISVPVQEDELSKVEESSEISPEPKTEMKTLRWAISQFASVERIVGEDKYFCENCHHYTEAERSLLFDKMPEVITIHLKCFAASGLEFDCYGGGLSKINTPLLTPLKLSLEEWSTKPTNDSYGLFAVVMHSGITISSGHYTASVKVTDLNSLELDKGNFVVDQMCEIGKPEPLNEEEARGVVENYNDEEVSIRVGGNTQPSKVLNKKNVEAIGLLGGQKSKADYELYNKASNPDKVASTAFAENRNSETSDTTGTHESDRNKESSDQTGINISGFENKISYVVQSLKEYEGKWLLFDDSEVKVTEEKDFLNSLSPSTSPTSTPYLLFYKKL
USP1 (Recombinant Human His6-USP1/His6-UAF1 Complex Protein), sequence (Q8TAF3 whole entry partner): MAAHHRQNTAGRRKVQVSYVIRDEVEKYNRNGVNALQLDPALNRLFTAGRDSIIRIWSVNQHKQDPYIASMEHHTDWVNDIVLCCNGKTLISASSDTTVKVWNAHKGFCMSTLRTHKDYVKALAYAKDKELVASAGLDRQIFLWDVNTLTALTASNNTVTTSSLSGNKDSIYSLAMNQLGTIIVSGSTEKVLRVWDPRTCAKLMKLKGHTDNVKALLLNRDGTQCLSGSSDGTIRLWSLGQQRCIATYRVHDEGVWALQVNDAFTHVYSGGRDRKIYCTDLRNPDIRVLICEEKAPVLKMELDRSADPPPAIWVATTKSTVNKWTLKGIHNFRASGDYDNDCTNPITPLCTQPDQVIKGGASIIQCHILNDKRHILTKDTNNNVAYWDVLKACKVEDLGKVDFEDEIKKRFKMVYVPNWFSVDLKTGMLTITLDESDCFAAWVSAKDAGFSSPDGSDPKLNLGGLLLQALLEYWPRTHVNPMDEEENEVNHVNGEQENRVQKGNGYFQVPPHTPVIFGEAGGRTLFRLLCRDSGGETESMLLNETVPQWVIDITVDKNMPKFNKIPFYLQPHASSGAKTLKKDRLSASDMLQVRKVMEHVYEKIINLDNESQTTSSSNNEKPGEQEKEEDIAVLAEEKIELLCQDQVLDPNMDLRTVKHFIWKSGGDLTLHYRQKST
Procedure for MDA-MB-436 cells: Assay based on CellTiter-Glo luminescent cell viability assay system.
The assay kit (CellTiter-Glo® Luminescent Cell Viability Assay) was purchased from Promega, with Cat. No. of G7573, and was stored at −30° C. after subpackage. The kit is a homogeneous assay method for assaying the number of viable cells in a culture based on quantitative determination of ATP. The kit produces a luminescence signal proportional to the amount of ATP present, and the amount of ATP is directly proportional to the number of cells in the culture.
The cultured cells were trypsinized, collected and centrifuged, then resuspended at an adjusted concentration in a culture solution (DMEM+10% FBS), and cultured overnight on a 384-well plate (400 cells/20 μl/well) in a cell incubator with 5% CO2 at 37° C. An ECHO instrument was used to added the compound and pure DMSO onto each well of the 384-well plate. The total volume of the compound and DMSO is 100 nL, and the instrument obtains gradient diluted sample concentrations through different ratios. To each well, 30 μL of culture solution was added, and after mixing by centrifugal oscillation and re-centrifugation, the cells were cultured in a cell incubator for 7 days (one column of cells was subjected to CTG assay on the day of dosing). After day 7, 25 μL of CTG assay solution was added to each well, and after mixing by centrifugal oscillation and re-centrifugation, the cells were placed at room temperature away from light for 10 min. In terms of chemiluminescence signals, an Envision plate reader (PerkinElmer, emission wavelength: 400-700 nm) was used to measure a signal in each well. The chemiluminescence value [RLU]cpd on day 7 was obtained for the treatment group, the chemiluminescence value [RLU]cell on day 7 was obtained for the non-treatment group (given DMSO only), and the chemiluminescence value [RLU]background on day 0 was obtained for the parallel non-treatment group (given DMSO only) by CTG assay on day 0. […] In the following equation, x represents the concentration of the compound in a logarithmic form; and F(x) represents an effect value (inhibition rate of proliferation at the concentration): F(x)=(A+((B−A)/(1+((C/x)^D)))). A, B, C, and D are four parameters.

For `COc1ncnc(C2CC2)c1-c1ncc2c(n1)N(Cc1ccc3c(c1)C(C)CCn1cc(C(F)(F)F)nc1-3)CC(=O)N2C` (stereo not shown) [Compound 79, 2-(4-cyclopropyl-6-methoxypyrimidin-5-yl)-5-methyl-8-((7-methyl-2-(trifluoromethyl)-6,7-dihydro-5H-benzo[c]imidazo[1,2-a]azepin-9-yl)methyl)-7,8-dihydropteridin-6(5H)-one], the IC50 in experiment [1] is 95.2 nM. Moreover, in the experiment on MDA-MB-436 cells, halving of growth (GI50) required 80.2 nM.
As for `COc1ncnc(C2CC2)c1-c1ncc2c(n1)N(Cc1ccc(-c3nc(C(F)(F)F)cn3C)c(C(F)(F)F)c1)CCO2` [Compound 64], the IC50 in experiment [1] turned out to be 22.7 nM.
For `CC(C)c1ncccc1-c1ncc2c(n1)N(Cc1ccc(-c3nc(C(F)(F)F)cn3C)cc1)CC(=O)N2` [Compound 4, 2-(2-isopropylpyridin-3-yl)-8-(4-(1-methyl-4-(trifluoromethyl)-1H-imidazol-2-yl)benzyl)-7,8-dihydropteridin-6(5H)-one], the IC50 in experiment [1] worked out at 43.3 nM.
As to `CCn1cc(C(F)(F)F)nc1-c1ccc(CN2CC(=O)N(C3CC3)c3cnc(-c4c(OC)ncnc4C4CC4)nc32)cc1F` [Compound 73, 2-(4-cyclopropyl-6-methoxypyrimidin-5-yl)-8-(3-fluoro-4-(1-ethyl-4-(trifluoromethyl)-1H-imidazol-2-yl)benzyl)-5-cyclopropyl-7,8-dihydropteridin-6(5H)-one], the IC50 in experiment [1] stood at 45.2 nM. Besides, it took 48 nM to inhibit growth with MDA-MB-436 cells by half (GI50).
For the compound `COc1ncnc(C2CC2)c1-c1ncc2c(n1)N(Cc1ccc(-n3nc(C(F)(F)F)cc3C)c(F)c1)CC(=O)N2C` [Compound 44, 2-(4-cyclopropyl-6-methoxypyrimidin-5-yl)-5-methyl-8-(3-fluoro-4-(5-methyl-3-(trifluoromethyl)-1H-pyrazol-1-yl)benzyl)-7,8-dihydropteridin-6(5H)-one], the IC50 in experiment [1] was 13.9 nM. Further, halving of growth in the experiment with MDA-MB-436 cells (GI50) required 27.5 nM.
Turning to `COc1ncnc(C2CC2)c1-c1ncc2c(n1)N(Cc1ccc(-c3nc(C(F)(F)F)cn3C)c(F)c1)N(C)C(=O)N2C` [Compound 84, 7-(4-cyclopropyl-6-methoxypyrimidin-5-yl)-1-(3-fluoro-4-(1-methyl-4-(trifluoromethyl)-1H-imidazol-2-yl)benzyl)-2,4-dimethyl-1,4-dihydropyrimido[5,4-e][1,2,4]triazin-3(2H)-one], in experiment [1], the IC50 amounted to 69.7 nM.
`COc1ncnc(C2CC2)c1-c1ncc2c(n1)N(Cc1ccc(-c3nc(C(F)(F)F)cn3C)cc1)C(=O)C(C)O2` (stereo not shown) [Compound 21, 2-(4-cyclopropyl-6-methoxypyrimidin-5-yl)-6-methyl-8-(4-(1-methyl-4-(trifluoromethyl)-1H-imidazol-2-yl)benzyl)-6H-pyrimido[5,4-b][1,4]oxazin-7(8H)-one]: in experiment [1], the IC50 is 16.7 nM. This compound returned a GI50 in the experiment on MDA-MB-436 cells of 97.5 nM.
`Cc1cnc(-c2ccccc2C(C)C)nc1NCc1ccc(-n2ccnn2)cc1` [ML323, reference compound] showed a GI50 in the experiment with MDA-MB-436 cells of 1820 nM.
Take `COc1ncnc(C2CC2)c1-c1ncc2c(n1)N(Cc1ccc(-c3nc(C(F)(F)F)cn3C)cc1)C(=O)N(C)C2` [Compound 29, 7-(4-cyclopropyl-6-methoxypyrimidin-5-yl)-3-methyl-1-(4-(1-methyl-4-(trifluoromethyl)-1H-imidazol-2-yl)benzyl)-3,4-dihydropyrimido[4,5-d]pyrimidin-2(1H)-one]: the 50% inhibitory concentration (IC50) in experiment [1] came to 20 nM. In addition, in the experiment on MDA-MB-436 cells, growth was halved (GI50) at 24.4 nM.
`COc1ncnc(C2CC2)c1-c1ncc2c(n1)N(Cc1ccc(-c3nc(C(F)(F)F)cn3C)cc1)C(=O)CO2` [Compound 6, 2-(4-cyclopropyl-6-methoxypyrimidin-5-yl)-8-(4-(1-methyl-4-(trifluoromethyl)-1H-imidazol-2-yl)benzyl)-6H-pyrimido [5,4-b][1,4]oxazin-7(8H)-one] displayed a GI50 with MDA-MB-436 cells of 420 nM.
As to `COc1ncnc(C2CC2)c1-c1ncc2c(n1)N(Cc1ccc(-n3nc(C(F)(F)F)cc3C)cc1)C(=O)OC21CCC1` [Compound 55, 7′-(4-cyclopropyl-6-methoxypyrimidin-5-yl)-1′-(4-(5-methyl-3-(trifluoromethyl)-1H-pyrazol-1-yl)benzyl)spiro[cyclobutane-1,4′-pyrimido[4,5-d][1,3]oxazin]-2′(1′H)-one], in experiment [1], the IC50 was 8.7 nM.
The same measure, in the same setting: next, `COc1ncnc(C2CC2)c1-c1ncc2c(n1)N(Cc1ccc3c(c1)CCCn1cc(C(F)(F)F)nc1-3)CC(=O)N2C1CC1` [Compound 48, 5-cyclopropyl-2-(4-cyclopropyl-6-methoxypyrimidin-5-yl)-8-((2-(trifluoromethyl)-6,7-dihydro-5H-benzo[c]imidazo[1,2-a]azepin-9-yl)methyl)-7,8-dihydropteridin-6-(5H)-one]: 26.1 nM; `COc1ncnc(C2CC2)c1-c1ncc2c(n1)N(Cc1ccc3c(c1)CCCn1cc(C(F)(F)F)nc1-3)CC(=O)N2C(C)C` [Compound 47, 2-(4-cyclopropyl-6-methoxypyrimidin-5-yl)-5-isopropyl-8-((2-(trifluoromethyl)-6,7-dihydro-5H-benzo[c]imidazo[1,2-a]azepin-9-yl)methyl)-7,8-dihydropteridin-6(5H)-one]: 45.9 nM.
`COc1ncnc(C2CC2)c1-c1ncc2c(n1)N(Cc1ccc(-n3nc(C(F)(F)F)cc3C)cc1)CC(=O)N2C1CC1` [Compound 72, 2-(4-cyclopropyl-6-methoxypyrimidin-5-yl)-8-(4-(5-methyl-3-(trifluoromethyl)-1H-pyrazol-1-yl)benzyl)-5-cyclopropyl-7,8-dihydropteridin-6(5H)-one]: the concentration for half-maximal inhibition (IC50) in experiment [1] is 38 nM.
Still for that read-out and setting: next, `COc1ncnc(C2CC2)c1-c1ncc2c(n1)N(Cc1ccc(-n3nc(C(F)(F)F)cc3C)cc1)C(=O)OC21CC1` [Compound 53, 7′-(4-cyclopropyl-6-methoxypyrimidin-5-yl)-1′-(4-(5-methyl-3-(trifluoromethyl)-1H-pyrazol-1-yl)benzyl)spiro[cyclopropane-1,4′-pyrimido[4,5-d][1,3]oxazine]-2′(1′H)-one]: 8.9 nM; `Cc1cc(C(F)(F)F)nn1-c1ccc(CN2C(=O)OC(C)(C)c3cnc(-c4c(OC(F)F)ncnc4C4CC4)nc32)cc1` [Compound 75, 7-(4-cyclopropyl-6-difluoromethoxypyrimidin-5-yl)-4,4-dimethyl-1-(4-(5-methyl-3-(trifluoromethyl)-1H-pyrazol-1-yl)benzyl)-1,4-dihydro-2H-pyrimido[4,5-d][1,3]oxazin-2-one]: 14.8 nM.
Take `COc1ncnc(C2CC2)c1-c1ncc2c(n1)N(Cc1ccc(-c3nc(C(F)(F)F)cn3C)cc1)CCO2` [Compound 2, 2-(4-cyclopropyl-6-methoxypyrimidin-5-yl)-8-(4-(1-methyl-4-(trifluoromethyl)-1H-imidazol-2-yl)benzyl)-7,8-dihydro-6H-pyrimido[5,4-b][1,4]oxazine]: the GI50 with MDA-MB-436 cells was found to be 20.9 nM.
Same read-out and setting: for `COc1ncnc(C2CC2)c1-c1ncc2c(n1)N(Cc1ccc(-c3nc(C(F)(F)F)cn3C)c(F)c1)CCO2` [Compound 32, 2-(4-cyclopropyl-6-methoxypyrimidin-5-yl)-8-(3-fluoro-4-(1-methyl-4-(trifluoromethyl)-1H-imidazol-2-yl)benzyl)-7,8-dihydro-6H-pyrimido[5,4-b][1,4]oxazine] the value was 11.4 nM.
On to `COc1ncnc(C2CC2)c1-c1ncc2c(n1)N(Cc1ccc(-c3nc(C(F)(F)F)cn3C)c(F)c1)C(=O)OC2(C)C` [Compound 49, 7-(4-cyclopropyl-6-methoxypyrimidin-5-yl)-4,4-dimethyl-1-(3-fluoro-4-(1-methyl-4-(trifluoromethyl)-1H-imidazol-2-yl)benzyl)-1,4-dihydro-2H-pyrimido[4,5-d][1,3]oxazin-2-one], for which, in experiment [1], the IC50 turned out to be 33.2 nM.
As for `COc1ncnc(C2CC2)c1-c1ncc2c(n1)N(Cc1ccc(-n3nc(C(F)(F)F)cc3C)cc1)C(=O)OC21COC1` [Compound 54, 7′-(4-cyclopropyl-6-methoxypyrimidin-5-yl)-1′-(4-(5-methyl-3-(trifluoromethyl)-1H-pyrazol-1-yl)benzyl)spiro[oxetane-3,4′-pyrimido[4,5-d][1,3]oxazine]-2′(1′H)-one], in experiment [1], the half-maximal inhibitory concentration (IC50) turned out to be 23.2 nM.
Still for that read-out and setting: next, `COc1ncnc(C2CC2)c1-c1ncc2c(n1)N(Cc1ccc(-c3nc(C(F)(F)F)cn3C)c(F)c1)C(=O)OC21CC1` [Compound 51, 7′-(4-cyclopropyl-6-methoxypyrimidin-5-yl)-1′-(3-fluoro-4-(1-methyl-4-(trifluoromethyl)-1H-imidazol-2-yl)benzyl)spiro[cyclopropane-1,4′-pyrimido[4,5-d][1,3]oxazine]-2′(1′H)-one]: 13.8 nM; `C#CC1(C)OC(=O)N(Cc2ccc(-c3nc(C(F)(F)F)cn3C)c(F)c2)c2nc(-c3c(OC)ncnc3C3CC3)ncc21` (stereo not shown) [Compound 59, 7-(4-cyclopropyl-6-methoxypyrimidin-5-yl)-4-ethynyl-1-(3-fluoro-4-(1-methyl-4-(trifluoromethyl)-1H-imidazol-2-yl)benzyl)-4-methyl-1,4-dihydro-2H-pyrimido[4,5-d][1,3]oxazin-2-one]: 13.5 nM.
The compound `COc1ncnc(C2CC2)c1-c1ncc2c(n1)N(Cc1ccc(-c3nc(C(F)(F)F)cn3C)cc1F)CCO2` [Compound 9, 2-(4-cyclopropyl-6-methoxypyrimidin-5-yl)-8-(2-fluoro-4-(1-methyl-4-(trifluoromethyl)-1H-imidazol-2-yl)benzyl)-7,8-dihydro-6H-pyrimido[5,4-b][1,4]oxazine] showed a GI50 in the experiment with MDA-MB-436 cells of 50.4 nM.
